In data set [1] the test system is Pseudomonas CH07. In words: Degradation of PCB congeners of Clophen A-50 by Pseudomonas CH07 in seawater nutrient broth, GC-ECD analysis. As to conditions: for Degradation Of PCBs: 40 hrs incubation with Pseudomonas CH07, versus control; for Conc. of PCBs in Test sol. (incubation) 40 hrs.: incubation with Pseudomonas CH07 for 40 hrs, Clophen A-50 100 ppm in seawater nutrient broth. The method, then: A defined seawater nutrient broth medium (code no. 088 from Himedia, Bombay) containing beef extract 3 g L^−1, peptic digest of animal tissue 5 g L^−1 was used. One liter of medium contained 500 ml seawater and 500 ml distilled water and the final pH was adjusted to 7 using 0.1 N NaOH. After autoclaving, the required amount of stock solution (10,000 ppm) of Clophen A-50 was added to the medium in sterile condition to achieve a final concentration of 100 ppm. Immediately after adding the stock PCBs solution, the hexane part of it was evaporated out by gently swirling the flask in sterile condition and sterile glycerol was added to the medium in a 1:1 ratio of stock solution:glycerol. 40 μl of 24 hold culture of Pseudomonas CH07 growths was added in two replicates of 20 ml of test (seawater nutrient broth+Clophen A-50) medium to seawater nutrient broth (without any addition of Clophen A-50). Controls in duplicate were also maintained without the addition of the organism at room temperature (ca. 28°±2° C.). Control and test cultures were maintained at room temperature for two days and at various predecided intervals of time, the samples was taken out aseptically and prepared for GC analysis. The details of the sample preparation is described below.
The PCBs were analyzed following the method described by Boon et al. The method was standardized in our laboratory using the PCBs standards obtained from Promochem, Germany as well as other analytical grade chemicals from E. Merck. The purity of the solvents was checked by Gas chromatography for each of the bottles. The different adsorbents, alumina, silica, were purified by soxhlet extraction with di-chloro-methane (HPLC grade) for about eight hours. The anhydrous Na2SO4 and the glass wool were also purified by Soxhlet extraction with HPLC grade di-chloro methane. The different steps of the analytical methods are illustrated below:
i. Aliquot of 1 ml sample was treated with 1 ml n-hexane (HPLC grade) thrice and thoroughly mixed by a vortex mixture for five minutes each time. The upper part of the solvent layer (solvent extract) was separated with the help of micropipette and transferred to a sterilized glass tube.
ii. Concentrate the solvent extract to 1 ml by evaporation with Snyder column evaporator on a water bath at 85° C.
iii. Purify of the solvent extract by alumina clean up using micro-column technique.
iv. Concentrate the solvent extract to 1 ml by evaporation with Snyder column evaporator on a water bath at 85° C.
v. Isolate PCBs from polar chlorinated compounds by eluting through micro-column of silica.
vi. Concentrate the PCBs fraction to 1 ml by evaporation with Snyder column evaporator on a water bath at 85° C.
vii. Analyze the aliquot by GC-ECD with reference to standard PCBs (individual congeners).
The samples were analyzed by gas chromatography (Varian GC-3380) coupled with an electron capture detector and an autosampler 8200. Capillary column VA-5 (30 m×0.25 mm) was employed with electron capture detector […] for peak detection. Argon with 5% methane was the carrier gas. A temperature program was used (table. 3). […] The experimental condition of the instrument is illustrated in the table-4. The analysis of PCBs was calibrated using the standards for individual congeners of PCBs obtained from Promochem, Germany. Using different dilutions of the stock solution of the standards carried out the calibration of each of the individual congeners. The linearity of the calibration curve was determined with a range of dilution of the mix-standards.

Data set [2] deals with Pseudomonas CH07. Kind of data set: Taxonomical characteristics: growth of Pseudomonas CH07 on antibiotics. Format: cell-based. Set-up: key: −: negative response (no growth); +: positive response (slight or moderate growth); ++: very good response (good growth). The settings on record: Table 1, taxonomical tests.

As for `Clc1cc(Cl)c(-c2ccc(Cl)c(Cl)c2Cl)cc1Cl` [CB-138, 2,2′,3,4,4′,5′-Hexachloro], the “Degradation Of PCBs” value with Pseudomonas CH07 [1] came to 55.97%.

In the case of `Clc1ccc(-c2cc(Cl)c(Cl)cc2Cl)cc1Cl` [CB-118, 2,3′,4,4′,5-Pentachloro], in the data set with Pseudomonas CH07 [1], the “Degradation Of PCBs” value is on record as 40.72%.

For the compound `Clc1ccc(-c2cc(Cl)c(Cl)c(Cl)c2)cc1Cl` [CB-126, 3,3′,4,4′,5-Pentachloro], in the data set on Pseudomonas CH07 [1], the “Degradation Of PCBs” value is reported as 100% and the “Conc. of PCBs in Test sol. (incubation) 40 hrs.” value (from here on “Conc. of PCBs”) was 00.00 ng/mL.

With `Clc1ccc(Cl)c(-c2cc(Cl)c(Cl)c(Cl)c2Cl)c1` [CB-141, 2,2′,3,4,5,5′-Hexachloro], in the data set with Pseudomonas CH07 [1], the “Degradation Of PCBs” value is reported as 55.38%.

Regarding `CN(C)[C@@H]1C(O)=C(C(N)=O)C(=O)[C@@]2(O)C(O)=C3C(=O)c4c(O)ccc(Cl)c4[C@@H](O)[C@H]3C[C@@H]12` [Demechlocyclin], in the data set on Pseudomonas CH07 [2], the “Growth on (Response)” value is recorded as “++”.

`Clc1ccc(Cl)c(-c2cc(Cl)c(Cl)cc2Cl)c1` [CB-101, 2,2′,4,5,5′-Pentachloro]: the “Degradation Of PCBs” value with Pseudomonas CH07 [1] is given as 20.19%.

With `Clc1ccc(Cl)c(-c2c(Cl)c(Cl)cc(Cl)c2Cl)c1` [CB-151, 2,2′,3,5,5′,6-Hexachloro], the “Degradation Of PCBs” value in the data set with Pseudomonas CH07 [1] is 37.32%.

As for `Clc1cc(Cl)c(-c2cc(Cl)c(Cl)c(Cl)c2Cl)cc1Cl` [CB-180, 2,2′,3,4,4′,5,5′-Heptachloro], the “Degradation Of PCBs” value in the data set on Pseudomonas CH07 [1] turned out to be 61.33%.

Regarding `Clc1ccc(-c2ccc(Cl)c(Cl)c2Cl)cc1Cl` [CB-105, 2,3,3′,4,4′-Pentachloro], the “Degradation Of PCBs” value in the data set with Pseudomonas CH07 [1] was 46.69%.

With `NC[C@H]1O[C@H](O[C@H]2[C@H](O)[C@@H](O[C@H]3O[C@H](CO)[C@@H](O)[C@H](N)[C@H]3O)[C@H](N)C[C@@H]2N)[C@H](O)[C@@H](O)[C@@H]1O` [Kanamycin], the “Growth on (Response)” value in the data set on Pseudomonas CH07 [2] is on record as “++”.

As to `Clc1c(Cl)c(Cl)c(-c2ccccc2)c(Cl)c1Cl` [CB-116, 2,3,4,5,6-Pentachloro], in the data set with Pseudomonas CH07 [1], the “Degradation Of PCBs” value was 20.04% and the “Conc. of PCBs” value stood at 8.06 ng/mL.

On to `CN(C)[C@@H]1C(O)=C(C(N)=O)C(=O)[C@@]2(O)C(O)=C3C(=O)c4c(O)cccc4[C@@](C)(O)[C@H]3C[C@@H]12` [Tetracycline], for which, in the data set with Pseudomonas CH07 [2], the “Growth on (Response)” value was “++”.

Consider `[H]/N=C(/N)N[C@H]1[C@H](O)[C@@H](O)[C@H](O[C@@H]2O[C@@H](C)[C@](O)(C=O)[C@H]2O[C@@H]2O[C@@H](CO)[C@H](O)[C@@H](O)[C@@H]2NC)[C@@H](N/C(N)=N\[H])[C@@H]1O` [Streptomycin], for which the “Growth on (Response)” value in the data set with Pseudomonas CH07 [2] is on record as “++”.

For the compound `Clc1cc(Cl)c(-c2ccc(Cl)c(Cl)c2)c(Cl)c1` [CB-119, 2,3′,4,4′,6-Pentachloro], in the data set with Pseudomonas CH07 [1], the “Degradation Of PCBs” value was 19.66% and the “Conc. of PCBs” value was 6.48 ng/mL.

Turning to `Clc1ccc(-c2c(Cl)c(Cl)c(Cl)c(Cl)c2Cl)c(Cl)c1` [CB-181, 2,2′,3,4,4′,5,6-Heptachloro], the “Degradation Of PCBs” value with Pseudomonas CH07 [1] is recorded as 100%.

With `Clc1ccc(-c2ccc(Cl)c(Cl)c2)cc1Cl` [CB-77, 3,3′,4,4′-tetrachlorobiphenyl], in the data set with Pseudomonas CH07 [1], the “Degradation Of PCBs” value stood at 24.25% and the “Conc. of PCBs” value was found to be 40.42 ng/mL.

Consider `Clc1ccc(-c2ccc(Cl)c(Cl)c2Cl)c(Cl)c1Cl` [CB-128, 2,2′,3,3′,4,4′-Hexachloro], for which, in the data set with Pseudomonas CH07 [1], the “Degradation Of PCBs” value amounted to 64.33%.

For Neomycin, the “Growth on (Response)” value with Pseudomonas CH07 [2] is on record as “++”.

On to `Clc1cc(Cl)c(-c2cccc(Cl)c2Cl)cc1Cl` [CB-97, 2,2′,3′,4,5-Pentachloro], for which the “Degradation Of PCBs” value in the data set on Pseudomonas CH07 [1] is 19.69%.

Values taken from US6544773B1, “Microbial process for degradation of PCBS in clophen A-50 using a novel marine microorganism, Pseudomonas CH07” (priority 2001, dated 2003).
